Key:
Format in all cases: physicochemical
[1] = Decomposition temperature Tdec by TGA-DSC; conditions: onset of decomposition in TGA, 10 K/min, nitrogen
Procedure: The decomposition temperature Tdec is measured by loading a sample of 9 to 11 mg into a Mettler Toledo 100 μL aluminum pan without lid under nitrogen in a Mettler Toledo TGA-DSC 1 machine. The following heating program was used: 25° C. isothermal for 3 min; 25° C. to 600° C. with 10 K/min. The decomposition temperature was determined based on the onset of the decomposition in TGA.

[2] = Sublimation temperature Tsubl in sublimation apparatus; conditions: 10−5 mbar
Excerpt: Under nitrogen in a glovebox, 0.5 to 5 g compound are loaded into the evaporation source of a sublimation apparatus. The sublimation apparatus consist of an inner glass tube consisting of bulbs with a diameter of 3 cm which are placed inside a glass tube with a diameter of 3.5 cm. The sublimation apparatus is placed inside a tube oven (Creaphys DSU 05/2.1). The sublimation apparatus is evacuated via a membrane pump (Pfeiffer Vacuum MVP 055-3C) and a turbo pump (Pfeiffer Vacuum THM071 YP). The pressure is measured between the sublimation apparatus and the turbo pump using a pressure gauge (Pfeiffer Vacuum PKR 251). When the pressure has been reduced to 10−5 mbar, the temperature is increased in increments of 10 to 30 K till the compound starts to be deposited in the harvesting zone of the sublimation apparatus. The temperature is further increased in increments of 10 to 30 K till a sublimation rate is achieved where the compound in the source is visibly depleted over 30 min to 1 hour and a substantial amount of compound has accumulated in the harvesting zone. The sublimation temperature, also named Tsubl, is the temperature inside the sublimation apparatus at which the compound is deposited in the harvesting zone at a visible rate and is measured in degree Celsius.

[3] = Rate onset temperature TRO in VTE source with QCM detector; conditions: 15 K/min, less than 10−5 mbar
Procedure: The rate onset temperature (TRO) is determined by loading 100 mg compound into a VTE source. As VTE source a point source for organic materials may be used as supplied by Kurt J. Lesker Company (www.lesker.com) or CreaPhys GmbH (http://www.creaphys.com). The VTE source is heated at a constant rate of 15 K/min at a pressure of less than 10−5 mbar and the temperature inside the source measured with a thermocouple. Evaporation of the compound is detected with a QCM detector which detects deposition of the compound on the quartz crystal of the detector. The deposition rate on the quartz crystal is measured in Angstrom per second. To determine the rate onset temperature, the deposition rate is plotted against the VTE source temperature. The rate onset is the temperature at which noticeable deposition on the QCM detector occurs. For accurate results, the VTE source is heated and cooled three time and only results from the second and third run are used to determine the rate onset temperature.
To achieve good control over the evaporation rate of an organic compound, the rate onset temperature may be in the range of 200 to 255° C. If the rate onset temperature is below 200° C. the evaporation may be too rapid and therefore difficult to control. If the rate onset temperature is above 255° C. the evaporation rate may be too low which may result in low tact time and decomposition of the organic compound in VTE source may occur due to prolonged exposure to elevated temperatures.
The rate onset temperature is an indirect measure of the volatility of a compound. The higher the rate onset temperature the lower is the volatility of a compound.

[4] = Solubility in benzonitrile

CC(=O)C=C(C)[O-].CC(=O)C=C(C)[O-].[Cu+2] [CC-1, Cu(acac)2]
Tdec [1]: >280 °C | Sublimation temperature Tsubl [2]: 110-120 °C | Rate onset temperature TRO [3]: <100 °C

CC(=O)/C=C(\[O-])C(F)(F)F.CC(=O)/C=C(\[O-])C(F)(F)F.[Cu+2] [CC-2, Cu(tfac)2]
Tdec [1]: >185 °C | Sublimation temperature Tsubl [2]: 95-100 °C | Rate onset temperature TRO [3]: <100 °C

CC(=O)C=C([O-])C(F)(F)F.CC(=O)C=C([O-])C(F)(F)F.CC(=O)C=C([O-])C(F)(F)F.[Bi+3] [CC-3, Bi(tfac)3]
Tdec [1]: >100 °C | Sublimation temperature Tsubl [2]: decomposition | Rate onset temperature TRO [3]: <100 °C

O=C(C=C([O-])C(F)(F)F)C(F)(F)F.O=C(C=C([O-])C(F)(F)F)C(F)(F)F.O=C(C=C([O-])C(F)(F)F)C(F)(F)F.[Bi+3] [CC-4, Bi(hfac)3]
Sublimation temperature Tsubl [2]: decomposition | Rate onset temperature TRO [3]: <100 °C

CC(C)(C)C(=O)C=C([O-])C(F)(F)C(F)(F)C(F)(F)F.CC(C)(C)C(=O)C=C([O-])C(F)(F)C(F)(F)C(F)(F)F.CC(C)(C)C(=O)C=C([O-])C(F)(F)C(F)(F)C(F)(F)F.[Bi+3] [CC-5, Bi(fod)3]
Tdec [1]: >200 °C | Sublimation temperature Tsubl [2]: 120 °C | Rate onset temperature TRO [3]: <100 °C

CC(C)(C)/C([O-])=C/C(=O)C(F)(F)C(F)(F)C(F)(F)F.CC(C)(C)/C([O-])=C/C(=O)C(F)(F)C(F)(F)C(F)(F)F.CC(C)(C)/C([O-])=C/C(=O)C(F)(F)C(F)(F)C(F)(F)F.[La+3] [CC-6, La(fod)3]
Tdec [1]: >260 °C | Sublimation temperature Tsubl [2]: 170 °C | Rate onset temperature TRO [3]: 101 °C

N#C/C(C(=O)c1cc(C(F)(F)F)cc(C(F)(F)F)c1)=C(/[O][Cu][O]/C(=C(/C#N)C(=O)c1cc(C(F)(F)F)cc(C(F)(F)F)c1)c1cc(C(F)(F)F)cc(C(F)(F)F)c1)c1cc(C(F)(F)F)cc(C(F)(F)F)c1 [MC-1, bis(((Z)-1,3-bis(3,5-bis(trifluoromethyl)phenyl)-2-cyano-3-oxoprop-1-en-1-yl)oxy)copper]
Tdec [1]: >319 °C | Sublimation temperature Tsubl [2]: 261 °C | Rate onset temperature TRO [3]: 204 °C

N#C/C(C(=O)C(F)(F)C(F)(F)F)=C(/[O][Cu][O]/C(=C(/C#N)C(=O)C(F)(F)C(F)(F)F)c1ccc(-c2cc(C(F)(F)F)cc(C(F)(F)F)c2)cc1)c1ccc(-c2cc(C(F)(F)F)cc(C(F)(F)F)c2)cc1 [MC-2, bis(((Z)-1-(3′,5′-bis(trifluoromethyl)-[1,1′-biphenyl]-4-yl)-2-cyano-4,4,5,5,5-pentafluoro-3-oxopent-1-en-1-yl)oxy)copper]
Tdec [1]: >330 °C | Solubility in benzonitrile ([4]; at 20° C.): >10 mg/mL | Sublimation temperature Tsubl [2]: decomposition

C/C(C(=O)c1ccnc(C(F)(F)F)c1)=C(/[O][Cu][O]/C(=C(/C)C(=O)c1ccnc(C(F)(F)F)c1)c1ccnc(C(F)(F)F)c1)c1ccnc(C(F)(F)F)c1 [MC-3, bis(((Z)-2-methyl-3-oxo-1,3-bis(2-(trifluoromethyl)pyridin-4-yl)prop-1-en-1-yl)oxy)copper]
Tdec [1]: >300 °C | Solubility in benzonitrile ([4]; at 60° C. (footnote 2)): 10 mg/ml^2) | Sublimation temperature Tsubl [2]: decomposition
